# Data as given in patent publication US8735439B2, “Chlorin e6-folic acid conjugate, preparation method thereof, and a pharmaceutical composition for the treatment of cancer comprising the same” (Diatech Korea Co., Ltd., priority 2009, dated 2014).
# Experiment: Photophysical parameters (triplet state, intercombinative conversion) of chlorin e6 conjugate
# Assay type: physicochemical
# Procedure: Values of Δ ? and Δ ? were determined after substantially transferring of all molecules of the studied substance in excited triplet state. In such conditions, ΔD=CΔεTl, wherein C indicates the molar concentration of the substance in solution, and l indicates the length of the optical way. As the standard to estimate γ, Pd(II)-octa ethyl porphyrin (Pd (II)-OEP) was selected, for which the γ value in benzol was considered as equal to one.
substance,measurement,setting,value
[γ-(6-aminohexyl)folic acid]-chlorin e6 [chlorin e6 conjugate],Δε^T,"H2O, pH 8.1",278 dm^3 mol^−1 cm^−1
same,γ (photoresponse of intercombinative conversion),"H2O, pH 8.1",0.8
same,"τt (triplet lifetime, oxygen saturated)","H2O, pH 8.1",2.5 μs
same,"τt^0 (triplet lifetime, deoxygenated)","H2O, pH 8.1",170 μs
same,Δε^T,"HSA, H2O, pH 8.1",798 dm^3 mol^−1 cm^−1
same,γ (photoresponse of intercombinative conversion),"HSA, H2O, pH 8.1",0.82
same,"τt (triplet lifetime, oxygen saturated)","HSA, H2O, pH 8.1",14.7 μs
same,"τt^0 (triplet lifetime, deoxygenated)","HSA, H2O, pH 8.1",700 μs
same,Δε^T,"Liposomes, H2O, pH 8.1",251 dm^3 mol^−1 cm^−1
same,γ (photoresponse of intercombinative conversion),"Liposomes, H2O, pH 8.1",0.78
same,"τt (triplet lifetime, oxygen saturated)","Liposomes, H2O, pH 8.1",1.4 μs
same,"τt^0 (triplet lifetime, deoxygenated)","Liposomes, H2O, pH 8.1",70 μs
same,Δε^T,Pyridine,94 dm^3 mol^−1 cm^−1
same,γ (photoresponse of intercombinative conversion),Pyridine,0.81
same,"τt (triplet lifetime, oxygen saturated)",Pyridine,0.3 μs
same,"τt^0 (triplet lifetime, deoxygenated)",Pyridine,140 μs
same,"τt (triplet lifetime, oxygen saturated)",Triton X-100,2.6 μs
same,"τt^0 (triplet lifetime, deoxygenated)",Triton X-100,230 μs
same,γ (photoresponse of intercombinative conversion),practically similar in all the systems,≈ 0.7
